The test system of one data set is MDA-MB-231. The data set can be described thus: Empty vesicles vs. DOX-vesicles on cell lines. In kind it is cell-based. The following applies: MDA-MB-231 human breast cancer. The text has this:
(§1) Empty vesicles vs. DOX-vesicles. 3 cell lines: MDA-MB-231: human breast cancer; MCF-7: human breast cancer; A549: non-small cell lung cancer.

A further data set concerns A549. Briefly: Empty vesicles vs. DOX-vesicles on cell lines. The following applies: Homo sapiens; A549 non-small cell lung cancer. In kind it is cell-based.
Description: as §1

A short description of data set [1]: Vesicle radius and PDI by DLS. The following applies: drug-loaded catanionic SVs.
Description: To measure the average size of the vesicles, 100 μL of the solution was taken and diluted to 1 mL with water and analyzed using dynamic light scattering (DLS).
The conditions of data set [2]: cited from earlier work.
For data set [3] the following is noted: within detection limits, after 11 days. The protocol:
To assess the rate of encapsulated substrate release, dialysis was initially considered. […] The assay was to remove aliquots from SVs-encapsulated formulations at time intervals and re-purify the aliquot by size-exclusion chromatography (SEC). Vesicle fractions elute in the initial fractions while release carbohydrate is retained on the column and elutes in the later fractions. The quantity of carbohydrate released was determined by ^1H-NMR (FIG. 28).
Using the SEC method, the initial rate of glucose release was analyzed for vesicle encapsulated glucose solutions at varying concentrations. […] Therefore, a simple model with first-order release kinetics across the vesicle membrane (Eq. 1) was used, from which the rate law (Eq. 2) can be derived, where [Sugar]in and [Sugar]out are the sugar concentrations inside and outside the vesicle, respectively.
The release for each vesicle-encapsulated sugar preparation was monitored for at least two half-lives (monosaccharides) and at least one half-life (disaccharides and maltotriose). The release profile for each substrate was then fit to Eq. 3 by a least squares method, and the first order rate constant k1 was calculated. The reported uncertainties represent the standard deviation in the measured k1 of three separate batches of vesicle-encapsulated sugar.
The t1/2 was calculated from each k1, and the permeability coefficient (P) was calculated using k1 and the vesicle size (from DLS experiments) according to: […]

Data set [4] in a line: Encapsulation in catanionic SVs (gel filtration, then NMR or ICP-AES). The format is physicochemical. The following applies: chemotherapeutic drugs in SDBS-rich SVs, PBS 1×. The protocol: Vesicles were formed in the presence of several different sugars, purified by gel filtration, and the encapsulated sugar concentration measured by NMR (Table 3).
Table 6 summarizes the EE and drug concentration achieved with each of the chemotherapeutic agents under the standard SDBS-rich SVs formulation method.
The gel was flushed with two column-volumes of PBS 1×. Next, 1.0 mL of crude vesicle suspension was loaded onto the column and gravity fed into the gel. 2.0 mL of PBS 1× eluent was then added to the column and the fractions discarded. 1.5 mL of PBS 1× was then added to the column and the fractions collected to yield purified opaque light blue vesicles. The column was cleaned with 2.0 mL of 0.1% Triton X-100 in water followed by two column volumes of PBS 1×.

Values after ≈ are worked out from the molar mass of the structure shown. Values joined by “and” are separate entries in the source; they are usually repeats but may differ in a detail not shown here. Equal values may be shown once.

In general, IC50 refers to the concentration that gives 50% inhibition. The pKa is the negative logarithm of the acid dissociation constant.

As for `COc1cccc2c1C(=O)c1c(O)c3c(c(O)c1C2=O)C[C@@](O)(C(=O)CO)C[C@@H]3O[C@H]1C[C@H](N)[C@H](O)[C@H](C)O1` [Doxorubicin, doxorubicin], in the data set with MDA-MB-231, the IC50 was found to be 0.06 µg/mL (≈ 0.11 µM). The same molecule displayed an IC50 in the data set with A549 of 0.02 µg/mL (≈ 0.0368 µM). Also, in data set [1], the “Vesicle PDI” value turned out to be 0.25 and the “Vesicle Radius (nm)” value is 91 nm. In data set [2], the pKa is listed as 8.4. In data set [3], the “release from vesicles after 11 days” value was “no release”. In addition, in data set [4], the “EE (%)” value is 61% and the “[Drug], mM (in purified vesicles)” value is reported as 0.15 ± 0.02 mM. In addition, the “EE (%)” value in data set [4] (listed as doxorubicin) was 60% and 61%.

The values above are taken from US20230081679A1, “SURFACTANT VESICLES FOR VACCINE FORMULATION, TARGETED DRUG DELIVERY, AND TRANSFECTION” (University of Maryland, College Park, priority 2021, published 2023).
